Assay [1] deals with MRSA/VISA clinical strain No 111. The assay is described as follows: MIC and Fic index for gentamicin with and without CBD, Example 9. In kind it is cell-based, Staphylococcus aureus. Conditions: for MIC value: agent alone. How it is done: (§1) The term “minimal inhibitory concentration” or “MIC” as used herein relates to the minimal concentration of an agent, or a combination of agents, in which bacteria are substantially killed or at least not substantially grow. The cutoff value to determine the MIC in the experimental section was set to an optical density (OD) value of ≤0.1 after an overnight incubation of the bacteria together with the tested antibacterial agent(s).
(§2) Fractional Inhibitory Concentration values (FicA and FicB) and Fic index were calculated for each combination of compounds and clinical isolate using the following standard equations for this analysis: Fic index=FicA+FicB FicA=MIC of compound A (CBG) in combination/MIC of compound A alone. FicB=MIC of compound B (gentamicin) in combination/MIC of compound B alone.
(§3) Synergy is defined as a Fic index value of ≤0.5. Indifference or no interaction will be defined as a FIC index value of >0.5 and <4. Antagonism will be defined as a FIC index value of >4. When the FIC index value is within the range of 0.5-1, the combination is considered to be non-synergistic or additive.
The goal of the current experiment was to determine the minimal inhibitory concentration (MIC) for gentamicin with and without CBD on methicillin-resistant Staphylococcus aureus (MRSA) and […] Staphylococcus aureus (MRSA) (VISA) clinical strain No 111 from Souraski Medical Center, Tel Aviv, Israel. The cutoff value to determine the MIC was set to an optical density (OD) value of ≤0.1.
(§4) Fractional Inhibitory Concentration values (FicA and FicB) and Fic index were calculated for each combination of compounds and clinical isolate using the same calculation as in example 7.

The test system is the same in assay [2]. The assay is described as follows: MIC and Fic index for gentamicin with and without CBG, Example 7. It counts as cell-based, Staphylococcus aureus. Conditions: for MIC value: agent alone, OD cutoff ≤0.1. How it is done:
as §1
The goal of the current experiment was to determine the minimal inhibitory concentration (MIC) for gentamicin with and without CBG on methicillin-resistant Staphylococcus aureus (MRSA) and […] Staphylococcus aureus (MRSA) (VISA) clinical strain No 111 from Souraski Medical Center, Tel Aviv, Israel. The cutoff value to determine the MIC was set to an optical density (OD) value of ≤0.1.
as §2, §3

Assay [3] has as its system methicillin-resistant Staphylococcus aureus (MRSA) violent clinical strain 760330509. Kind of assay: MIC and Fic index for gentamicin with and without CBG, Example 8. It counts as cell-based. As to conditions: for MIC value: agent alone. How it is done: as §1, §2, §3
The goal of the current experiment was to determine the minimal inhibitory concentration (MIC) for gentamicin with and without CBG on methicillin-resistant Staphylococcus aureus (MRSA) violent clinical strain 760330509 from Souraski Medical Center, Tel Aviv, Israel. The cutoff value to determine the MIC was set to an optical density (OD) value of ≤0.1.
as §4

In assay [4] the test system is S. aureus ATCC strain 25923 (gentamicin-sensitive). The assay is described as follows: Minimal bactericidal concentration (MBC), Example 1. In kind it is cell-based, Staphylococcus aureus. As for the experimental part:
The goal of the current experiment was to determine the minimal bactericidal concentrations (MBC) for THC with and without PEA on S. aureus ATCC strain 25923 (gentamicin-sensitive).
• 1. Incubation of the S. aureus (from a −80° C. stock) in 3 ml Muller Hinton (MH, Difco) medium at 37° C. under agitation of 250 rpm for 18-20 hours (this culture served as a starter for the experiment); • 2. Dilution of the starter culture using saline to obtain working cultures of 5*10^5 and 10^6 C.F.U/mL bacteria, respectively. • 3. Diluting the THC (0.125 mg/mL in saline) with or without PEA or gentamicin in a 96-well plate. • 4. Incubation of the plates at 37° C. under shaking (100 rpm) for 18-20 hours. • 5. In the following day, the bacteria in the wells suspended in saline were evaluated for their C.F.U/mL to determine the MBC.

The test system is the same in assay [5]. The assay is described as follows: Minimal inhibitory concentration (MIC) for gentamicin with and without THC, Example 2. It counts as cell-based, Staphylococcus aureus. Conditions: OD cutoff ≤0.1. How it is done: (§5) In certain embodiments, the method of testing the anti-bacterial efficacy of a composition (or any test solution), comprises the following steps: (a) inoculation of bacteria (e.g. from a −80° C. stock) into 3 mL Muller Hinton (MH) medium; (b) incubation of the inoculated medium at 37° C. under agitation of 250 rpm for 18-20 hours, thus obtaining a starter culture; (c) diluting the starter culture using saline to obtain working cultures of 5*10^5 or 10^6 bacteria/mL; (d) combining the […] and the tested composition in a test container, e.g. a 96-well plate; (e) incubating the test container at 37° C. under shaking (100 rpm) for 18-20 hours; and (f) determining the viability of bacteria in the test container, thus determining the anti-bacterial efficacy of the composition, e.g. via determining the optical density (OD) of the bacterial culture. Routine calibrations and/or modifications of this method are well within the capabilities of any person of average skill in the art.
(§6) The term “minimal inhibitory concentration” or “MIC” as used herein relates to the minimal concentration of an agent, or a combination of agents, in which bacteria are substantially killed or at least not substantially grow. […]

Assay [6] shares this test system. Kind of assay: MIC for gentamicin with and without THC, Example 3. In kind it is cell-based, Staphylococcus aureus. As to conditions: OD cutoff ≤0.1. How it is done:
as §5, §6

Assay [7] deals with methicillin-resistant Staphylococcus aureus (MRSA). Kind of assay: MIC for gentamicin with and without THC on MRSA, Example 4. It counts as cell-based. As for the experimental part:
as §5, §6

The test system is the same in assay [8]. Kind of assay: MIC for ampicillin with and without THC on MRSA, Example 5. In kind it is cell-based. Conditions: read-out: MIC value. How it is done: as §5, §6
Assay [9] concerns Streptococcus pneumoniae. Kind of assay: MIC for carbenicillin with and without THC, Example 6. It counts as cell-based. As to conditions: agent alone, OD cutoff ≤0.1. As for the experimental part:
as §5, §6

Assay [10] relates to established S. aureus ATCC strain 25923 (gentamicin-sensitive) biofilm. The assay is described as follows: MIC for gentamicin with and without THC on established biofilm, Example 10. Conditions: agent alone; OD cutoff ≤0.1. It counts as cell-based, Staphylococcus aureus. How it is done: as §1
The goal of the current experiment was to determine the minimal inhibitory concentration (MIC) for gentamicin with and without THC on an established S. aureus ATCC strain 25923 (gentamicin-sensitive) biofilm. The cutoff value to determine the MIC was set to an optical density (OD) value of ≤0.1.

[11] abbreviates: Staphylococcus aureus, read-out: MIC value.
Setting [12] is: Staphylococcus aureus, ATCC25923, agent alone.

Converted amounts (≈) assume the structure as drawn.

Regarding `C=C(C)[C@@H]1CCC(C)=C[C@H]1c1c(O)cc(CCCCC)cc1O` [CBD, cannabidiol], the “FicA value (MIC of CBD in combination/MIC alone)” value in assay [1] (32 μg/mL Gen.+1 μg/mL CBD) turned out to be 0.125. Moreover, the MIC in assay [1] (Staphylococcus aureus, read-out: MIC value, agent alone, MRSA/VISA strain No 111, OD cutoff ≤0.1) is roughly 8 µg/mL.

Take `CCCCCc1cc(O)c(C/C=C(\C)CCC=C(C)C)c(O)c1` [CBG, cannabigerol]: the “FicA value (MIC of CBG in combination/MIC alone)” value in [2] (64 μg/mL Gen.+1 μg/mL CBG) and in assay [3] (32 μg/mL Gen.+1 μg/mL CBG) was 0.125 in each case. Moreover, the “MIC value for CBG alone” value in [2] (MRSA/VISA strain No 111) was “about 8 n g/mL”. In addition, the MIC in assay [2] (setting [11]) is 8 µg/mL; in assay [3] (Staphylococcus aureus, MRSA, read-out: MIC value, agent alone, MRSA strain 760330509, OD cutoff ≤0.1) it was roughly 8 µg/mL.

As for `CCCCCc1cc(O)c2c(c1)OC(C)(C)[C@@H]1CCC(C)=C[C@@H]21` [THC, tetrahydrocannabinol], the MBC in assay [4] (Staphylococcus aureus, ATCC25923, agent alone, S. aureus ATCC 25923) was roughly 7.8 µg/mL (≈ 24.8 µM). In assay [4] (THC alone vs gentamicin alone), the “fold decrease of MBC compared to gentamicin alone” value was determined as 32 fold. In addition, the minimum inhibitory concentration (MIC) was roughly 1 µg/mL in assay [5] (setting [12]); roughly 2 µg/mL in assay [6] (setting [12]); roughly 2 µg/mL in assay [7] (setting [11]); roughly 2 µg/mL in [8]; roughly 2 µg/mL in assay [9]. Further, in assay [10], the “MIC value on established biofilm” value was “about 0.004 mg/mL”.

`CC1(C)S[C@@H]2[C@H](NC(=O)[C@H](N)c3ccccc3)C(=O)N2[C@H]1C(=O)O` [ampicillin]: in [8], the MIC is roughly 500 µg/mL.

Consider `CC1(C)S[C@@H]2[C@H](NC(=O)C(C(=O)O)c3ccccc3)C(=O)N2[C@H]1C(=O)O` (stereo partly shown) [carbenicillin], for which the MIC in assay [9] was roughly 0.2 µg/mL.

Turning to gentamicin, the MBC value in assay [4] (agent alone, S. aureus ATCC 25923) is 0.25 mg/mL. For the same molecule, the MIC value result in assay [5] (agent alone) was “about 0.001 mg/mL”; in [6] (agent alone) it was “about 0.002 mg/mL”; in assay [7] (agent alone, OD cutoff ≤0.1) it was “about 0.125 mg/mL”; in assay [2] (MRSA/VISA strain No 111), “about 256 μg/mL”; in assay [2] (MRSA/VISA strain No 111, listed as Gen.) it was 256 µg/mL; in [3] (MRSA strain 760330509, OD cutoff ≤0.1), “about 128 μg/mL”. The MIC value in [3] (MRSA strain 760330509, OD cutoff ≤0.1, listed as Gen.) is 128 µg/mL; in assay [1] (MRSA/VISA strain No 111, OD cutoff ≤0.1), “about 256 μg/mL”; in assay [1] (MRSA/VISA strain No 111, OD cutoff ≤0.1, listed as Gen.), 256 µg/mL. The “FicB value (MIC of gentamicin in combination/MIC alone)” value in assay [2] (64 μg/mL Gen.+1 μg/mL CBG) was 0.25; in assay [3] (32 μg/mL Gen.+1 μg/mL CBG), 0.25; in [1] (32 μg/mL Gen.+1 μg/mL CBD), 0.125. In assay [10], the “MIC value on established biofilm” value is given as “over 0.002 mg/mL”.

These data come from US12533370B2, “Compositions and methods of potentiating antimicrobials” (priority 2016, dated 2026).
